Laboratory results from US10004701B2, “Methods and compositions for treating infection” (UNIVERSITY OF ROCHESTER, priority 2012, dated 2018).
Where a name gives a salt, the structure may show the parent alone. Read-outs that look alike come from different tables or passages of the source.

Assays:
Assay in all cases: AK assay 384-well format, Prestwick library screening
[1] = tested on: E. faecium; type: cell-based, Enterococcus faecium; conditions: 50 μM final drug concentration; for fold induction at 50 µM: Enterococcus faecium, 3 h
[2] = tested on: S. aureus strain USA300-0114; type: cell-based, Staphylococcus aureus; conditions: 50 μM final drug concentration; for fold induction at 50 µM: Staphylococcus aureus, USA300, 3 h
[3] = tested on: K. pneumoniae; type: cell-based, Klebsiella pneumoniae; conditions: 50 μM final drug concentration; for fold induction at 50 µM: Klebsiella pneumoniae, 3 h
[4] = tested on: A. baumannii strain 98-37-09; type: cell-based, Acinetobacter baumannii; conditions: 50 μM final drug concentration; for fold induction at 50 µM: Acinetobacter baumannii, 983709, 3 h
[5] = tested on: P. aeruginosa; type: cell-based, Pseudomonas aeruginosa; conditions: 50 μM final drug concentration; for fold induction at 50 µM: Pseudomonas aeruginosa, 3 h
[6] = tested on: E. cloacae; type: cell-based, Enterobacter cloacae; conditions: 50 μM final drug concentration; for fold induction at 50 µM: Enterobacter cloacae, 3 h
[7] = tested on: E. coli; type: cell-based, Escherichia coli; conditions: 50 μM final drug concentration; for fold induction at 50 µM: Escherichia coli, 3 h
[8] = planktonic, […], read-out: AK-based Prestwick Library Screening Results, E. faecium (fold increase in extracellular AK activity)
[9] = planktonic, […], read-out: AK-based Prestwick Library Screening Results, S. aureus (fold increase in extracellular AK activity)
[10] = planktonic, […], read-out: AK-based Prestwick Library Screening Results, K. pneumoniae (fold increase in extracellular AK activity)
[11] = planktonic, […], read-out: AK-based Prestwick Library Screening Results, A. baumannii (fold increase in extracellular AK activity)
[12] = planktonic, […], read-out: AK-based Prestwick Library Screening Results, P. aeruginosa (fold increase in extracellular AK activity)
[13] = planktonic, […], read-out: AK-based Prestwick Library Screening Results, E. cloacae (fold increase in extracellular AK activity)
[14] = planktonic, […], read-out: AK-based Prestwick Library Screening Results, E. coli (fold increase in extracellular AK activity)
[15] = planktonic, cutoff for positive 3-fold increase, read-out: AK-based Prestwick Library Screening Results, E. faecium (fold increase in extracellular AK activity)
[16] = planktonic, cutoff for positive 3-fold increase, read-out: AK-based Prestwick Library Screening Results, S. aureus (fold increase in extracellular AK activity)
[17] = planktonic, cutoff for positive 3-fold increase, read-out: AK-based Prestwick Library Screening Results, K. pneumoniae (fold increase in extracellular AK activity)
[18] = planktonic, cutoff for positive 3-fold increase, read-out: AK-based Prestwick Library Screening Results, A. baumannii (fold increase in extracellular AK activity)
[19] = planktonic, cutoff for positive 3-fold increase, read-out: AK-based Prestwick Library Screening Results, P. aeruginosa (fold increase in extracellular AK activity)
[20] = planktonic, cutoff for positive 3-fold increase, read-out: AK-based Prestwick Library Screening Results, E. cloacae (fold increase in extracellular AK activity)
[21] = planktonic, cutoff for positive 3-fold increase, read-out: AK-based Prestwick Library Screening Results, E. coli (fold increase in extracellular AK activity)
[22] = 384-well format, cutoff for positive-scoring molecules 3-fold increase
[23] = planktonic, cutoff for positive-scoring molecules 3-fold increase

COc1c(O[C@@H]2O[C@H](CO)[C@@H](O)[C@H](O)[C@H]2O)cc2c(c1OC)-c1ccc(SC)c(=O)cc1[C@@H](NC(C)=O)CC2 [Thiocolchicoside]
fold induction at 50 µM [1, 8]: 1.1 | fold induction at 50 µM [2, 9]: 1.2 | fold induction at 50 µM [3, 10]: 0.8 | fold induction at 50 µM [4, 11]: 0.9 | fold induction at 50 µM [5, 12]: 1 | fold induction at 50 µM [6, 13]: 1.7 | fold induction at 50 µM [7, 14]: 1

COc1cnc(NS(=O)(=O)c2ccc(N)cc2)nc1 [Sulfameter]
fold induction at 50 µM [1, 8]: 1 | fold induction at 50 µM [2, 9]: 1.2 | fold induction at 50 µM [3, 10]: 1 | fold induction at 50 µM [4, 11]: 2.3 | fold induction at 50 µM [5, 12]: 1.1 | fold induction at 50 µM [6, 13]: 1.2 | fold induction at 50 µM [7, 14]: 1.3

CC1(C)O[C@@H]2C[C@H]3[C@@H]4C[C@H](F)C5=CC(=O)CC[C@]5(C)[C@H]4[C@@H](O)C[C@]3(C)[C@]2(C(=O)CO)O1 [Flurandrenolide]
fold induction at 50 µM [1, 15]: 0.8 | fold induction at 50 µM [2, 16]: 0.4 | fold induction at 50 µM [3, 17]: 0.5 | fold induction at 50 µM [4, 18]: 0.5 | fold induction at 50 µM [5, 19]: 0.4 | fold induction at 50 µM [6, 20]: 0.3 | fold induction at 50 µM [7, 21]: 0.5

CCC(=O)O[C@@](Cc1ccccc1)(c1ccccc1)[C@@H](C)CN(C)C [Levopropoxyphene napsylate]
fold induction at 50 µM ([1]; […], read-out: AK-based Prestwick Library Screening Results, E. faecium (fold increase in extracellular AK activity)): 1 | fold induction at 50 µM ([2]; […], read-out: AK-based Prestwick Library Screening Results, S. aureus (fold increase in extracellular AK activity)): 0.6 | fold induction at 50 µM ([3]; […], read-out: AK-based Prestwick Library Screening Results, K. pneumoniae (fold increase in extracellular AK activity)): 0.6 | fold induction at 50 µM ([4]; […], read-out: AK-based Prestwick Library Screening Results, A. baumannii (fold increase in extracellular AK activity)): 0.7 | fold induction at 50 µM ([5]; […], read-out: AK-based Prestwick Library Screening Results, P. aeruginosa (fold increase in extracellular AK activity)): 0.7 | fold induction at 50 µM ([6]; […], read-out: AK-based Prestwick Library Screening Results, E. cloacae (fold increase in extracellular AK activity)): 0.7 | fold induction at 50 µM ([7]; […], read-out: AK-based Prestwick Library Screening Results, E. coli (fold increase in extracellular AK activity)): 0.6

C[C@]12CCC(=O)C=C1CC[C@@H]1[C@@H]2C(=O)C[C@@]2(C)[C@H]1CC[C@]2(O)C(=O)CO [Cortisone]
AK-based Prestwick Library Screening Results, E. faecium (increase in extracellular AK activity) [1, 22]: 0.9 | AK-based Prestwick Library Screening Results, S. aureus (increase in extracellular AK activity) [2, 22]: 0.8 | AK-based Prestwick Library Screening Results, K. pneumoniae (increase in extracellular AK activity) [3, 22]: 0.8 | AK-based Prestwick Library Screening Results, A. baumannii (increase in extracellular AK activity) [4, 22]: 1.0 | AK-based Prestwick Library Screening Results, P. aeruginosa (increase in extracellular AK activity) [5, 22]: 1.0 | AK-based Prestwick Library Screening Results, E. cloacae (increase in extracellular AK activity) [6, 22]: 1.2 | AK-based Prestwick Library Screening Results, E. coli (increase in extracellular AK activity) [7, 22]: 0.9

O.O=C1C(O)=C(O)C(=O)C(O)=C1O [Tetrahydroxy-1,4-quinone monohydrate]
AK-based Prestwick Library Screening Results, E. faecium (fold increase in extracellular AK activity) [1, 23]: 0.9 | AK-based Prestwick Library Screening Results, S. aureus (fold increase in extracellular AK activity) [2, 23]: 0.8 | AK-based Prestwick Library Screening Results, K. pneumoniae (fold increase in extracellular AK activity) [3, 23]: 0.8 | AK-based Prestwick Library Screening Results, A. baumannii (fold increase in extracellular AK activity) [4, 23]: 1.1 | AK-based Prestwick Library Screening Results, P. aeruginosa (fold increase in extracellular AK activity) [5, 23]: 0.9 | AK-based Prestwick Library Screening Results, E. cloacae (fold increase in extracellular AK activity) [6, 23]: 1.3 | AK-based Prestwick Library Screening Results, E. coli (fold increase in extracellular AK activity) [7, 23]: 0.9

CC(C)(Oc1ccc(CCNC(=O)c2ccc(Cl)cc2)cc1)C(=O)O [Bezafibrate]
fold induction at 50 µM [1, 15]: 0.8 | fold induction at 50 µM [2, 16]: 1.1 | fold induction at 50 µM [3, 17]: 0.7 | fold induction at 50 µM [4, 18]: 0.8 | fold induction at 50 µM [5, 19]: 1 | fold induction at 50 µM [6, 20]: 1.5 | fold induction at 50 µM [7, 21]: 0.9

Cyanocobalamin
AK-based Prestwick Library Screening Results, E. faecium (increase in extracellular AK activity) ([1]; planktonic E. faecium, cutoff for positive-scoring molecules 3-fold increase): 0.8 | AK-based Prestwick Library Screening Results, S. aureus (increase in extracellular AK activity) ([2]; planktonic S. aureus, cutoff for positive-scoring molecules 3-fold increase): 0.5 | AK-based Prestwick Library Screening Results, K. pneumoniae (increase in extracellular AK activity) ([3]; planktonic K. pneumoniae, cutoff for positive-scoring molecules 3-fold increase): 0.6 | AK-based Prestwick Library Screening Results, A. baumannii (increase in extracellular AK activity) ([4]; planktonic A. baumannii, cutoff for positive-scoring molecules 3-fold increase): 0.8 | AK-based Prestwick Library Screening Results, P. aeruginosa (increase in extracellular AK activity) ([5]; planktonic P. aeruginosa, cutoff for positive-scoring molecules 3-fold increase): 0.7 | AK-based Prestwick Library Screening Results, E. cloacae (increase in extracellular AK activity) ([6]; planktonic E. cloacae, cutoff for positive-scoring molecules 3-fold increase): 1.2 | AK-based Prestwick Library Screening Results, E. coli (increase in extracellular AK activity) ([7]; planktonic E. coli, […]): 0.8

Cc1c(C)c2c(c(C)c1O)CCC(C)(C(=O)O)O2 (centres unmarked) [Trolox]
fold induction at 50 µM [1, 15]: 1.1 | fold induction at 50 µM [2, 16]: 1.6 | fold induction at 50 µM [3, 17]: 1.1 | fold induction at 50 µM [4, 18]: 1.1 | fold induction at 50 µM [5, 19]: 1.1 | fold induction at 50 µM [6, 20]: 1.6 | fold induction at 50 µM [7, 21]: 1.1

NS(=O)(=O)c1cc(C2(O)NC(=O)c3ccccc32)ccc1Cl (centres unmarked) [Chlorthalidone]
fold induction at 50 µM ([1]; planktonic E. faecium, cutoff for positive-scoring molecules 3-fold increase, read-out: AK-based Prestwick Library Screening Results, E. faecium (increase in extracellular AK activity)): 0.9 | fold induction at 50 µM ([2]; planktonic S. aureus, cutoff for positive-scoring molecules 3-fold increase, read-out: AK-based Prestwick Library Screening Results, S. aureus (increase in extracellular AK activity)): 0.7 | fold induction at 50 µM ([3]; planktonic K. pneumoniae, cutoff for positive-scoring molecules 3-fold increase, read-out: AK-based Prestwick Library Screening Results, K. pneumoniae (increase in extracellular AK activity)): 0.6 | fold induction at 50 µM ([4]; planktonic A. baumannii, cutoff for positive-scoring molecules 3-fold increase, read-out: AK-based Prestwick Library Screening Results, A. baumannii (increase in extracellular AK activity)): 0.8 | fold induction at 50 µM ([5]; planktonic P. aeruginosa, cutoff for positive-scoring molecules 3-fold increase, read-out: AK-based Prestwick Library Screening Results, P. aeruginosa (increase in extracellular AK activity)): 0.8 | fold induction at 50 µM ([6]; planktonic E. cloacae, cutoff for positive-scoring molecules 3-fold increase, read-out: AK-based Prestwick Library Screening Results, E. cloacae (increase in extracellular AK activity)): 1 | fold induction at 50 µM ([7]; planktonic E. coli, cutoff for positive-scoring molecules 3-fold increase, read-out: AK-based Prestwick Library Screening Results, E. coli (increase in extracellular AK activity)): 0.9

CCN(CC)CCNC(=O)COc1ccc(OC)cc1 [Mefexamide hydrochloride]
fold induction at 50 µM ([1]; planktonic E. faecium, 384-well, cutoff for positive-scoring molecules 3-fold increase, read-out: AK-based Prestwick Library Screening Results: E. faecium (increase in extracellular AK activity)): 1 | fold induction at 50 µM ([2]; planktonic S. aureus, 384-well, cutoff for positive-scoring molecules 3-fold increase, read-out: AK-based Prestwick Library Screening Results: S. aureus (increase in extracellular AK activity)): 0.9 | fold induction at 50 µM ([3]; planktonic K. pneumoniae, 384-well, cutoff for positive-scoring molecules 3-fold increase, read-out: AK-based Prestwick Library Screening Results: K. pneumoniae (increase in extracellular AK activity)): 0.9 | fold induction at 50 µM ([4]; planktonic A. baumannii, 384-well, cutoff for positive-scoring molecules 3-fold increase, read-out: AK-based Prestwick Library Screening Results: A. baumannii (increase in extracellular AK activity)): 1 | fold induction at 50 µM ([5]; planktonic P. aeruginosa, 384-well, cutoff for positive-scoring molecules 3-fold increase, read-out: AK-based Prestwick Library Screening Results: P. aeruginosa (increase in extracellular AK activity)): 1.1 | fold induction at 50 µM ([6]; planktonic E. cloacae, 384-well, cutoff for positive-scoring molecules 3-fold increase, read-out: AK-based Prestwick Library Screening Results: E. cloacae (increase in extracellular AK activity)): 1.3 | fold induction at 50 µM ([7]; planktonic E. coli, 384-well, cutoff for positive-scoring molecules 3-fold increase, read-out: AK-based Prestwick Library Screening Results: E. coli (increase in extracellular AK activity)): 1.2
